Results published in ChEMBL document CHEMBL2176953, “Synthesis and evaluation of α-thymidine analogues as novel antimalarials” (J Med Chem, 2012).

Legend:
[1] = biological target: T1, Thymidylate kinase (Plasmodium falciparum (isolate 3D7), UniProt Q8I4S1); experiment: Inhibition of recombinant Plasmodium falciparum TMPK using TMP as substrate by pyruvate kinase and lactate dehydrogenase enzyme coupled assay
T1 sequence (Q8I4S1 whole entry): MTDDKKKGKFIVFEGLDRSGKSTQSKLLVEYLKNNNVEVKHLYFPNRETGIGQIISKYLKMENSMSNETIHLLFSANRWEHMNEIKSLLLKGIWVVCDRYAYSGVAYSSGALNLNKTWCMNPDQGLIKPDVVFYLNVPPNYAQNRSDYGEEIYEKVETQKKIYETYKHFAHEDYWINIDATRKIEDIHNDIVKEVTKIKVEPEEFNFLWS

[2] = tested on: Plasmodium falciparum; experiment: Antimalarial activity against erythrocytic stages of Plasmodium falciparum 3D7 infected in human O positive RBC after 48 hrs by SYBR-green assay; format: functional, organism-based; settings: 3D7, 48 h
[3] = tested on: MRC5; experiment: Cytotoxicity against human MRC5 cells; format: cell-based

| SMILES | Ki [1] [µM] | EC50 [2] [µM] | CC50 [3] [µM] |
| --- | --- | --- | --- |
| Cc1cn([C@H]2C[C@H](O)[C@@H](CNC(=O)c3ccc4ccccc4c3)O2)c(=O)[nH]c1=O | > 1000 | > 100 |  |
| Cc1cn([C@@H]2C[C@H](O)[C@@H](CNC(=O)Nc3ccccc3-c3ccccc3)O2)c(=O)[nH]c1=O |  | 96 |  |
| COc1ccc(COc2ccc(NC(=O)NC[C@H]3O[C@H](n4cc(C)c(=O)[nH]c4=O)C[C@@H]3O)cc2)cc1 |  | 0.21 |  |
| Cc1cn([C@H]2C[C@H](O)[C@@H](CNC(=O)Nc3ccc(OC4CCOCC4)cc3)O2)c(=O)[nH]c1=O |  | 33 |  |
| Cc1cn([C@H]2C[C@H](O)[C@@H](CNS(=O)(=O)c3ccc([N+](=O)[O-])cc3)O2)c(=O)[nH]c1=O | > 1000 | > 100 |  |
| Cc1cn([C@H]2C[C@H](O)[C@@H](CNC(=O)Nc3cccc4ccccc34)O2)c(=O)[nH]c1=O |  | > 100 |  |
| Cc1cn([C@H]2C[C@H](O)[C@@H](CNC(=S)Nc3ccc(Cl)c(C(F)(F)F)c3)O2)c(=O)[nH]c1=O | 25 | 42 |  |
| COc1cccc(NC(=O)NC[C@H]2O[C@@H](n3cc(C)c(=O)[nH]c3=O)C[C@@H]2O)c1 | 69 | > 100 |  |
| Cc1cn([C@@H]2C[C@H](O)[C@@H](CNS(=O)(=O)c3ccc([N+](=O)[O-])cc3)O2)c(=O)[nH]c1=O | > 1000 | > 100 |  |
| Cc1cn([C@H]2C[C@H](O)[C@@H](CNCc3ccc([N+](=O)[O-])cc3)O2)c(=O)[nH]c1=O | 742 | > 100 |  |
| Cc1cn([C@@H]2C[C@H](O)[C@@H](CNC(=O)Nc3ccccc3Cl)O2)c(=O)[nH]c1=O | 205 | 36 |  |
| Cc1cn([C@@H]2C[C@H](O)[C@@H](CNC(=S)Nc3ccc(N4CCOCC4)cc3)O2)c(=O)[nH]c1=O |  | 35 |  |
| Cc1cn([C@@H]2C[C@H](O)[C@@H](CNC(=O)Nc3ccc(OCc4ccc(Cl)cc4)cc3)O2)c(=O)[nH]c1=O |  | 0.88 | > 50 |
| Cc1cn([C@@H]2C[C@H](O)[C@@H](CNC(=O)Nc3cccc(COc4ccccc4)c3)O2)c(=O)[nH]c1=O |  | 1.8 | > 50 |
| Cc1cn([C@@H]2C[C@H](O)[C@@H](CNC(=O)NCc3ccccc3)O2)c(=O)[nH]c1=O | 198 | 64 |  |
| Cc1cn([C@@H]2C[C@H](O)[C@@H](CNC(=S)Nc3ccc(Cl)cc3)O2)c(=O)[nH]c1=O | 90 | 13 | > 50 |
| Cc1cn([C@H]2C[C@H](O)[C@@H](CNC(=O)c3ccc([N+](=O)[O-])cc3)O2)c(=O)[nH]c1=O | 302 | > 100 |  |
| Cc1cn([C@H]2C[C@H](O)[C@@H](CNC(=O)NCc3ccccc3)O2)c(=O)[nH]c1=O | 64 | > 200 |  |
| Cc1cn([C@H]2C[C@H](O)[C@@H](CNC(=O)Nc3ccc(Cl)cc3)O2)c(=O)[nH]c1=O | 14 | > 200 |  |
| Cc1cn([C@@H]2C[C@H](O)[C@@H](CNC(=S)Nc3ccc(Br)cc3)O2)c(=O)[nH]c1=O | 65 | 20 |  |
| COc1ccc(COc2ccc(NC(=O)NC[C@H]3O[C@@H](n4cc(C)c(=O)[nH]c4=O)C[C@@H]3O)cc2)cc1 |  | 3.8 | > 50 |
| Cc1cn([C@@H]2C[C@H](O)[C@@H](CNCc3ccc([N+](=O)[O-])cc3)O2)c(=O)[nH]c1=O | > 1000 | > 100 |  |

| SMILES | Ki [1] [µM] | EC50 [2] [µM] | CC50 [3] [µM] |
| --- | --- | --- | --- |
| Cc1cn([C@H]2C[C@H](O)[C@@H](CNC(=O)Nc3ccc(Br)cc3)O2)c(=O)[nH]c1=O | 15 | 30 |  |
| Cc1cn([C@H]2C[C@H](O)[C@@H](CNC(=O)Nc3cccnc3)O2)c(=O)[nH]c1=O | 222 | > 100 |  |
| Cc1cn([C@@H]2C[C@H](O)[C@@H](CNC(=O)Nc3ccccc3)O2)c(=O)[nH]c1=O | 166 | 23 |  |
| Cc1cn([C@H]2C[C@H](O)[C@@H](CNC(=O)Nc3cccc(Cl)c3)O2)c(=O)[nH]c1=O | 28 | > 100 |  |
| Cc1cn([C@H]2C[C@H](O)[C@@H](CNC(=O)Nc3ccc(N4CCCCC4)cc3)O2)c(=O)[nH]c1=O |  | 4.8 | > 50 |
| Cc1cn([C@H]2C[C@H](O)[C@@H](CNC(=O)Nc3ccc(OCc4ccccc4Cl)cc3)O2)c(=O)[nH]c1=O |  | 0.41 | > 50 |
| Cc1cn([C@@H]2C[C@H](O)[C@@H](CNC(=O)Nc3cccc(Cl)c3)O2)c(=O)[nH]c1=O | 106 | 4.8 | > 50 |
| CCOC(=O)CCNC(=O)NC[C@H]1O[C@H](n2cc(C)c(=O)[nH]c2=O)C[C@@H]1O | > 1000 | > 100 |  |
| Cc1cn([C@H]2C[C@H](O)[C@@H](CNC(=O)Nc3ccccc3COc3ccccc3)O2)c(=O)[nH]c1=O |  | 48 |  |
| Cc1cn([C@H]2C[C@H](O)[C@@H](CNC(=S)Nc3ccc(Br)cc3)O2)c(=O)[nH]c1=O | 32 | 172 |  |
| Cc1cn([C@H]2C[C@H](O)[C@@H](CNC(=O)Nc3cccc(COc4ccccc4)c3)O2)c(=O)[nH]c1=O |  | 148 |  |
| Cc1ccc2nc(-c3ccc(NC(=O)NC[C@H]4O[C@H](n5cc(C)c(=O)[nH]c5=O)C[C@@H]4O)cc3)sc2c1 |  | 4.6 | > 50 |
| Cc1cn([C@@H]2C[C@H](O)[C@@H](CNC(=S)Nc3ccc(OCc4ccccc4)cc3)O2)c(=O)[nH]c1=O |  | 9.5 | > 50 |
| CCOC(=O)CCNC(=O)NC[C@H]1O[C@@H](n2cc(C)c(=O)[nH]c2=O)C[C@@H]1O | 201 | > 100 |  |
| Cc1cn([C@H]2C[C@H](O)[C@@H](CNC(=O)Nc3ccc(-c4ccccc4)cc3)O2)c(=O)[nH]c1=O |  | 3.3 | > 50 |
| Cc1cn([C@H]2C[C@H](O)[C@@H](CNC(=O)Nc3ccc([N+](=O)[O-])cc3)O2)c(=O)[nH]c1=O | 11 | 69 |  |
| Cc1cn([C@@H]2C[C@H](O)[C@@H](CNC(=O)c3ccc([N+](=O)[O-])cc3)O2)c(=O)[nH]c1=O | 541 | > 100 |  |
| Cc1cn([C@H]2C[C@H](O)[C@@H](CNC(=O)Nc3ccc(Cl)c(C(F)(F)F)c3)O2)c(=O)[nH]c1=O | 27 | 114 |  |
| Cc1cn([C@H]2C[C@H](O)[C@@H](CNC(=O)Nc3ccccc3-c3ccccc3)O2)c(=O)[nH]c1=O |  | 253 |  |
| Cc1cn([C@H]2C[C@H](O)[C@@H](CNC(=O)Nc3ccccc3)O2)c(=O)[nH]c1=O | 60 | > 100 |  |
| Cc1cn([C@H]2C[C@H](O)[C@@H](CNS(=O)(=O)c3ccc4ccccc4c3)O2)c(=O)[nH]c1=O | > 1000 | > 100 |  |
| Cc1cn([C@@H]2C[C@H](O)[C@@H](CNC(=O)Nc3ccc([N+](=O)[O-])cc3)O2)c(=O)[nH]c1=O | 11 | 31 |  |

| SMILES | Ki [1] [µM] | EC50 [2] [µM] | CC50 [3] [µM] |
| --- | --- | --- | --- |
| Cc1cn([C@@H]2C[C@H](O)[C@@H](CNC(=O)Nc3ccccc3COc3ccccc3)O2)c(=O)[nH]c1=O |  | 7.2 | > 50 |
| Cc1cn([C@@H]2C[C@H](O)[C@@H](CNC(=O)Nc3ccc(OC4CCOCC4)cc3)O2)c(=O)[nH]c1=O |  | 1.3 | > 50 |
| Cc1cn([C@H]2C[C@H](O)[C@@H](CNC(=O)Nc3ccc(OCc4ccccc4)cc3)O2)c(=O)[nH]c1=O |  | 4 | > 50 |
| Cc1cn([C@@H]2C[C@H](O)[C@@H](CNC(=O)Nc3ccc(N4CCN(C)CC4)cc3)O2)c(=O)[nH]c1=O |  | 29 |  |
| Cc1cn([C@H]2C[C@H](O)[C@@H](CNC(=O)Nc3ccccc3Cl)O2)c(=O)[nH]c1=O | 52 | > 100 |  |
| COc1cccc(NC(=O)NC[C@H]2O[C@H](n3cc(C)c(=O)[nH]c3=O)C[C@@H]2O)c1 | 159 | 56 |  |
| Cc1cn([C@H]2C[C@H](O)[C@@H](CNC(=O)Nc3ccc(C(C)(C)C)cc3)O2)c(=O)[nH]c1=O | 47 | 64 |  |
| COc1ccc(NC(=O)NC[C@H]2O[C@H](n3cc(C)c(=O)[nH]c3=O)C[C@@H]2O)cc1 |  | 2.5 | > 50 |
| Cc1cn([C@@H]2C[C@H](O)[C@@H](CNC(=O)Nc3ccc(OCc4ccc(C(C)(C)C)cc4)cc3)O2)c(=O)[nH]c1=O |  | 1.8 | > 50 |
| COc1ccc(NC(=O)NC[C@H]2O[C@@H](n3cc(C)c(=O)[nH]c3=O)C[C@@H]2O)cc1 | 50 | 69 |  |
| Cc1cn([C@H]2C[C@H](O)[C@@H](CNC(=O)Nc3ccc(N4CCN(C)CC4)cc3)O2)c(=O)[nH]c1=O |  | 26 |  |
| Cc1cn([C@@H]2C[C@H](O)[C@@H](CNC(=O)Nc3cccnc3)O2)c(=O)[nH]c1=O | > 1000 | > 100 |  |
| Cc1cn([C@@H]2C[C@H](O)[C@@H](CNS(=O)(=O)c3ccc4ccccc4c3)O2)c(=O)[nH]c1=O | > 1000 | > 100 |  |
| Cc1cn([C@@H]2C[C@H](O)[C@@H](CNC(=O)Nc3ccc(OCc4cccc(Cl)c4)cc3)O2)c(=O)[nH]c1=O |  | 0.24 | > 50 |
| Cc1cn([C@H]2C[C@H](O)[C@@H](CNC(=S)Nc3ccc(Cl)cc3)O2)c(=O)[nH]c1=O | 37 | > 200 |  |
| Cc1cn([C@@H]2C[C@H](O)[C@@H](CNC(=O)c3ccc4ccccc4c3)O2)c(=O)[nH]c1=O | 541 | > 100 |  |
| Cc1cn([C@@H]2C[C@H](O)[C@@H](CNC(=O)Nc3ccc(-c4ccc(C(F)(F)F)nc4)cc3)O2)c(=O)[nH]c1=O |  | 1.4 | > 50 |
| COc1ccccc1NC(=O)NC[C@H]1O[C@@H](n2cc(C)c(=O)[nH]c2=O)C[C@@H]1O | 107 | > 100 |  |
| COc1ccccc1NC(=O)NC[C@H]1O[C@H](n2cc(C)c(=O)[nH]c2=O)C[C@@H]1O | 138 | 44 |  |
| Cc1ccc2nc(-c3ccc(NC(=O)NC[C@H]4O[C@@H](n5cc(C)c(=O)[nH]c5=O)C[C@@H]4O)cc3)sc2c1 |  | > 200 |  |
| Cc1cn([C@@H]2C[C@H](O)[C@@H](CNC(=O)Nc3ccc(Cc4ccccc4)cc3)O2)c(=O)[nH]c1=O |  | 1.5 | > 50 |
